The values that follow come from PubChem BioAssay (NCI).

Usually TGI stands for the concentration at which net growth stops. A lower TGI goes with greater sensitivity of the cells. What is called GI50 is the concentration giving 50% growth inhibition.

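Tested at 5 concentrations; 48 h exposure; 96-well plates; endpoints linearly interpolated, else capped at highest concentration. GI50 = concentration required for 50% inhibition of growth. At the TGI there is no net growth.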 Where a SMILES comes first, the peptide text is derived from it. The star is where a group is joined. Boc = CC(C)(C)OC(=O)*

The first assay concerns MDA-MB-435. Nature of the assay: DTP human tumour cell line panel, 48 h.
The compound `CCN(CCO)CC1COc2ccccc2O1` (stereo unspecified) returned a TGI of over 100 µM.
Turning to `c1ccc2sc(SCSc3nc4ccccc4s3)nc2c1`, the TGI is over 100 µM.
Consider `CCOC(=O)c1c(-c2ccc(OC)cc2)c(C#N)c(=S)n(C2OC(COC(C)=O)C(OC(C)=O)C(OC(C)=O)C2OC(C)=O)c1C` (stereo unspecified), for which the TGI was over 100 µM.
The compound `O=c1cc(N=P(c2ccccc2)(c2ccccc2)c2ccccc2)n(-c2ccccc2)c(=O)n1-c1ccccc1` came in with a total growth inhibition concentration (TGI) of 57.2 µM.
Compound `O=C(NCCCN(CCCCN(CCCNC(=O)C(F)(F)F)Cc1ccccc1)Cc1ccccc1)C(F)(F)F` registered a TGI of 33.9 µM.
The compound `O=C(CCCN1CCC2(CC1)CC(=O)N(N1CCOCC1)C2=O)c1ccccc1` had a total growth inhibition concentration (TGI) of 35.4 µM.
In the case of `O=C1/C(=C\c2cccc(Oc3ccccc3)c2)S(=O)(=O)C(c2ccccc2)N1Cc1ccccc1` (stereo unspecified), the TGI stood at 96.5 µM.
`Cc1ccccc1C(O)(c1nccn1C)c1nccn1C` displayed a TGI of over 100 µM.
Compound `C=CCn1c(=O)ccn(COCCO)c1=O` registered a TGI of over 100 µM.
Compound `CCOC(=N)n1c(=O)n(C2=NCCN2)c2ccccc21` registered a TGI of over 100 µM.
`O=C(N=Nc1cc(Cl)ccc1Cl)NNc1cc(Cl)ccc1Cl` showed a TGI of 30 µM.
`CSc1cc(Cl)c(C)cc1S(=O)(=O)NC(=O)NNc1ccc(Cl)cc1` displayed a TGI of over 100 µM.
As to `CCOC(=O)NC(=S)NN(C)C1=NCC(C)(C)S1`, the TGI is over 100 µM.
On the same count and under the same terms, for `O=C(CNc1ccccc1Cl)Nn1c(-c2ccccc2)nc2ccccc2c1=O` the value was 37.4 µM.
With `Cc1cc2[nH]c3[nH]c(=O)[nH]c(=O)c3c2cc1C`, the TGI is over 100 µM.
On the same count and under the same terms, for `O=c1c2ccccc2nc2[nH][nH]c(=S)n12` the value was over 100 µM; for `CC1(C)N=C(C(N)=O)c2ncn(CCCO)c2N1`, over 100 µM.
Compound `CC(C)(C)OC(=O)NCC(=O)NCC(=O)NCC(=O)NCC(=O)O` (Boc-GGGG-OH) displayed a TGI of over 100 µM.
`COc1ccc(CC(O)CN2CCOCC2)cc1` (stereo unspecified): the TGI was over 100 µM.
As to `CC(O)C1CC1(CO)CNc1cc(Cl)nc(N)n1` (stereo unspecified), the TGI is over 100 µM.
Still for that read-out and setting: the same measure for `CN(C)Cc1cc(C(=O)/C=C/c2ccc(O)cc2)cc(CN(C)C)c1O`: over 100 µM.

The subject of a further assay is NCI-H23 lung. Nature of the assay: DTP human tumour cell line panel, 48 h.
As to `CS(=O)(=O)OCCn1c(=O)n(CCOS(C)(=O)=O)c(=O)n(CCOS(C)(=O)=O)c1=O`, the TGI was over 100 µM.
In turn, `c1ccc2c(c1)NC(C1OC3CCCN3C1C1Nc3ccccc3S1)S2` (stereo unspecified) gave a TGI of over 100 µM.
Take `COc1nc(C#CCC(C)O)nc(OC)n1` (stereo unspecified): the TGI was 43.4 µM. That is a double-digit micromolar value.
`Cc1c2c(n(CCc3ccc(Cl)cc3)c1C)NN=C(C#N)S2(=O)=O` came in with a TGI of over 100 µM.
`CSc1c(C#N)c(N)n2c1C(=O)N(c1ccccc1)C2=S` gave a total growth inhibition concentration (TGI) of over 100 µM.
For the compound `COc1ccc2cc(-c3ccc(-c4ccc(C(=N)N)s4)s3)ccc2c1`, the GI50 is 3.22 µM and the TGI was 9.89 µM.
`NNC(=O)c1ccc[n+](CCc2ccccc2)c1`: the TGI is over 100 µM.
Still for that read-out and setting: for `O=C1CN2C(c3ccccc3)=NN(c3ccc([N+](=O)[O-])cc3)C2(c2ccccc2)c2cc(Cl)ccc2N1CC1CC1` (stereo unspecified) the value was over 100 µM; for `CCN(CCO)CC1COc2ccccc2O1` (stereo unspecified), over 100 µM; for `c1ccc2sc(SCSc3nc4ccccc4s3)nc2c1`, over 100 µM.
Same read-out and setting: the same measure for `CCOC(=O)c1c(-c2ccc(OC)cc2)c(C#N)c(=S)n(C2OC(COC(C)=O)C(OC(C)=O)C(OC(C)=O)C2OC(C)=O)c1C` (stereo unspecified): over 100 µM; for `O=c1cc(N=P(c2ccccc2)(c2ccccc2)c2ccccc2)n(-c2ccccc2)c(=O)n1-c1ccccc1`: 32 µM.
In turn, `O=C(NCCCN(CCCCN(CCCNC(=O)C(F)(F)F)Cc1ccccc1)Cc1ccccc1)C(F)(F)F` returned a TGI of 30.9 µM. The TGI values of the last two compounds are within 1.5-fold of each other.
On to `O=C(CCCN1CCC2(CC1)CC(=O)N(N1CCOCC1)C2=O)c1ccccc1`, for which the TGI is over 100 µM.
The compound `O=C1/C(=C\c2cccc(Oc3ccccc3)c2)S(=O)(=O)C(c2ccccc2)N1Cc1ccccc1` (stereo unspecified) gave a total growth inhibition concentration (TGI) of over 100 µM.
The compound `C=CCn1c(=O)ccn(COCCO)c1=O` registered a TGI of over 100 µM.
Regarding `CCOC(=N)n1c(=O)n(C2=NCCN2)c2ccccc21`, the TGI is over 100 µM.
`O=C(N=Nc1cc(Cl)ccc1Cl)NNc1cc(Cl)ccc1Cl` came in with a TGI of 53.1 µM.
For the compound `O=C(CNc1ccccc1Cl)Nn1c(-c2ccccc2)nc2ccccc2c1=O`, the TGI turned out to be 40.8 µM.
`Cc1cc2[nH]c3[nH]c(=O)[nH]c(=O)c3c2cc1C` came in with a TGI of over 100 µM.
Compound `O=c1c2ccccc2nc2[nH][nH]c(=S)n12` returned a TGI of over 100 µM.
`CC1(C)N=C(C(N)=O)c2ncn(CCCO)c2N1` registered a TGI of over 100 µM.
The same measure, in the same setting: for `CC(C)(C)OC(=O)NCC(=O)NCC(=O)NCC(=O)NCC(=O)O` (Boc-GGGG-OH) the value was over 100 µM.
On to `COc1ccc(CC(O)CN2CCOCC2)cc1` (stereo unspecified), for which the total growth inhibition concentration (TGI) is over 100 µM.
The compound `CC(O)C1CC1(CO)CNc1cc(Cl)nc(N)n1` (stereo unspecified) registered a TGI of over 100 µM.
Compound `CN(C)Cc1cc(C(=O)/C=C/c2ccc(O)cc2)cc(CN(C)C)c1O` yielded a TGI of over 100 µM.

In another assay the test system is NCI/ADR-RES ovarian. Nature of the assay: DTP human tumour cell line panel, 48 h.
`CS(=O)(=O)OCCn1c(=O)n(CCOS(C)(=O)=O)c(=O)n(CCOS(C)(=O)=O)c1=O` registered a TGI of over 100 µM.
`COc1nc(C#CCC(C)O)nc(OC)n1` (stereo unspecified) came in with a TGI of 43.5 µM.
With `Cc1c2c(n(CCc3ccc(Cl)cc3)c1C)NN=C(C#N)S2(=O)=O`, the TGI is over 100 µM.
Take `CSc1c(C#N)c(N)n2c1C(=O)N(c1ccccc1)C2=S`: the TGI is over 100 µM.
Turning to `COc1ccc2cc(-c3ccc(-c4ccc(C(=N)N)s4)s3)ccc2c1`, the GI50 is 2.29 µM and the TGI stood at 4.87 µM.
In turn, `N#CCCN(CCC#N)c1ccc(/C=C2\N=C(c3ccccc3)N(c3ccc(Cl)cc3)C2=O)cc1` displayed a TGI of over 100 µM.
As to `NNC(=O)c1ccc[n+](CCc2ccccc2)c1`, the TGI was over 100 µM.
`O=C1CN2C(c3ccccc3)=NN(c3ccc([N+](=O)[O-])cc3)C2(c2ccccc2)c2cc(Cl)ccc2N1CC1CC1` (stereo unspecified) gave a TGI of over 100 µM.
The same measure, in the same setting: the same measure for `CCN(CCO)CC1COc2ccccc2O1` (stereo unspecified): over 100 µM.
For the compound `c1ccc2sc(SCSc3nc4ccccc4s3)nc2c1`, the TGI is over 100 µM.
Regarding `CCOC(=O)c1c(-c2ccc(OC)cc2)c(C#N)c(=S)n(C2OC(COC(C)=O)C(OC(C)=O)C(OC(C)=O)C2OC(C)=O)c1C` (stereo unspecified), the TGI is over 100 µM.
In turn, `O=c1cc(N=P(c2ccccc2)(c2ccccc2)c2ccccc2)n(-c2ccccc2)c(=O)n1-c1ccccc1` had a TGI of over 100 µM.
For the compound `O=C(NCCCN(CCCCN(CCCNC(=O)C(F)(F)F)Cc1ccccc1)Cc1ccccc1)C(F)(F)F`, the TGI came out at 30.1 µM. This lies in the double-digit micromolar range.
`O=C(CCCN1CCC2(CC1)CC(=O)N(N1CCOCC1)C2=O)c1ccccc1` had a TGI of over 100 µM.
In turn, `O=C1/C(=C\c2cccc(Oc3ccccc3)c2)S(=O)(=O)C(c2ccccc2)N1Cc1ccccc1` (stereo unspecified) displayed a TGI of 45 µM.
Still for that read-out and setting: the same measure for `Cc1ccccc1C(O)(c1nccn1C)c1nccn1C`: over 100 µM; for `C=CCn1c(=O)ccn(COCCO)c1=O`: over 100 µM.
